Laboratory results as given in US20100137313A1 (ASTRAZENECA AB, priority 2008, published 2010).

Each compound was assayed against S. pneumoniae Topoisomerase IV ATPase (ParE) (Streptococcus pneumoniae serotype 4, UniProt Q59961) (assay: S. pneumoniae Topoisomerase IV ATPase inhibition). Settings: values marked * are an average of two or more data points, read-out: % Inh (13 μM) of S. pneumoniae Topoisomerase IV ATPase.
Sequence of S. pneumoniae Topoisomerase IV ATPase (ParE) (Q59961 whole entry): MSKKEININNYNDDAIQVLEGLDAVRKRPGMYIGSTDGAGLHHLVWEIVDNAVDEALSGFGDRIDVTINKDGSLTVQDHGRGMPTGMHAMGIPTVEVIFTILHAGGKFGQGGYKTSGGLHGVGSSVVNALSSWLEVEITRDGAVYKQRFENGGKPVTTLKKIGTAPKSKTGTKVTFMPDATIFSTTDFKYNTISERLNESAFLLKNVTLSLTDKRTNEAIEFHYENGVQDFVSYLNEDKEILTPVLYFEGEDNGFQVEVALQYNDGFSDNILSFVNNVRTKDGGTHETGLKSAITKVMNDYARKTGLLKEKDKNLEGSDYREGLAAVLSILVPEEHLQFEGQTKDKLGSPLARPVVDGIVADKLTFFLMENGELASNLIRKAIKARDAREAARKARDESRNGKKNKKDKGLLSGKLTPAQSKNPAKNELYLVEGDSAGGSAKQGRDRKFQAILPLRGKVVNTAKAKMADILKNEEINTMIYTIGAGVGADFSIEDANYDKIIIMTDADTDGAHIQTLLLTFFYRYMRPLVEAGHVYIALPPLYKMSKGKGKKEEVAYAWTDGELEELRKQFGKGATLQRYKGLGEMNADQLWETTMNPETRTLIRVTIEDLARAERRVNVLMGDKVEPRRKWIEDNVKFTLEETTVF
Format: biochemical
How it was run: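 Phosphate-release ATPase assay: 1.25 nM ParE, 160 μM ATP, DNA-stimulated. Quench with malachite green/molybdate in 1 M HCl, read 650 nm; IC50 from 10-point dose series.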
For `Cc1cc(C(F)(F)F)nn1-c1nc(Nc2cc(F)cc(F)c2)ncc1-c1cccc(/C=C/C(=O)O)c1` [Example 620, (2E)-3-(3-{2-[(3,5-difluorophenyl)amino]-4-[5-methyl-3-(trifluoromethyl)-1H-pyrazol-1-yl]pyrimidin-5-yl}phenyl)prop-2-enoic acid], the inhibition at 13 µM was 96%. In the case of `COc1ccc(-c2cnc(Nc3ccc(F)c(Cl)c3)nc2-n2ccc(C(F)(F)F)n2)cc1C(=O)O` [Example 1074, 5-(2-(3-Chloro-4-fluorophenylamino)-4-(3-(trifluoromethyl)-1H-pyrazol-1-yl)pyrimidin-5-yl)-2-methoxybenzoic acid], the inhibition at 13 µM is reported as 100%. For `COc1cc(C)cc(Nc2ncc(-c3cnc(OC)c(-c4n[nH]c(=O)o4)c3)c(-n3nc(C(F)(F)F)cc3C)n2)c1` [Example 1170, 5-(2-methoxy-5-{2-[(3-methoxy-5-methylphenyl)amino]-4-[5-methyl-3-(trifluoromethyl)-1H-pyrazol-1-yl]pyrimidin-5-yl}pyridin-3-yl)-1,3,4-oxadiazol-2(3H)-one], the inhibition at 13 µM was 100%. `CCOC(=O)/C=C/c1cccc(-c2cnc(Nc3ccc(F)c(Cl)c3)nc2N2CC(C)OC(C)C2)c1` (centres unmarked) [Example 163, (E)-ethyl 3-(3-(2-(3-chloro-4-fluorophenylamino)-4-(2,6-dimethylmorpholino)pyrimidin-5-yl)phenyl)acrylate] gave an inhibition at 13 µM of 55%. With `CN(C)CCCNc1nc(Nc2ccc(F)c(Cl)c2)ncc1-c1cccc(C(=O)O)c1` [Example 31, 3-(2-[(3-chloro-4-fluorophenyl)amino]-4-{[3-(dimethylamino)propyl]-amino}pyrimidin-5-yl)benzoic acid] the inhibition at 13 µM was 86%. `COc1ncc(-c2cnc(Nc3ccc(F)c(Cl)c3)nc2N[C@H]2CCOC2)cn1` [Example 941, (S)-N2-(3-chloro-4-fluorophenyl)-2′-methoxy-N4-(tetrahydrofuran-3-yl)-5,5′-bipyrimidine-2,4-diamine] was tested, and the inhibition at 13 µM was 54%. Work on `Fc1ccc(Nc2ncc(-c3cncnc3)c(NCCOc3ccccc3)n2)cc1Cl` [Example 55, N^2-(3-chloro-4-fluorophenyl)-N^4-(2-phenoxyethyl)-5-pyrimidin-5-ylpyrimidine-2,4-diamine] yielded an inhibition at 13 µM of 44.4%. Work on `COc1cc(Nc2ncc(-c3cncc(C(=O)NCCO)c3)c(-n3nc(C(F)(F)F)cc3C)n2)cc(OC)c1` [Example 683, 5-{2-[(3,5-dimethoxyphenyl)amino]-4-[5-methyl-3-(trifluoromethyl)-1H-pyrazol-1-yl]pyrimidin-5-yl}-N-(2-hydroxyethyl)pyridine-3-carboxamide] yielded an inhibition at 13 µM of 100%. For `CN(C)CCCNc1nc(Nc2ccc(F)c(Cl)c2)ncc1-c1ccc(CCC(=O)O)cc1` [Example 27, 3-[4-(2-[(3-chloro-4-fluorophenyl)amino]-4-{[3-(dimethylamino)propyl]-amino}pyrimidin-5-yl)phenyl]propanoic acid], the inhibition at 13 µM was 89.2%. Compound `Cn1ccnc1COc1ncc(-c2cnc(Nc3ccc(F)c(Cl)c3)nc2-n2ccc(C(F)(F)F)n2)cc1C(=O)O` [Example 961, 5-(2-(3-chloro-4-fluorophenylamino)-4-(3-(trifluoromethyl)-1H-pyrazol-1-yl)pyrimidin-5-yl)-2-((1-methyl-1H-imidazol-2-yl)methoxy)nicotinic acid] has an inhibition at 13 µM of 100%. `Cc1cc(C)cc(Nc2ncc(-c3cncc(C(=O)O)c3)c(-n3nc(C(F)(F)F)cc3C)n2)c1` [Example 638, 5-{2-[(3,5-dimethylphenyl)amino]-4-[5-methyl-3-(trifluoromethyl)-1H-pyrazol-1-yl]pyrimidin-5-yl}pyridine-3-carboxylic acid] was tested, and the inhibition at 13 µM was 100%. With `Cc1cc(C(F)(F)F)nn1-c1nc(Nc2ccc(F)c(Cl)c2)ncc1-c1cncc(S(C)(=O)=O)c1` [Example 989, N-(3-chloro-4-fluorophenyl)-4-(5-methyl-3-(trifluoromethyl)-1H-pyrazol-1-yl)-5-(5-(methylsulfonyl)pyridin-3-yl)pyrimidin-2-amine] the inhibition at 13 µM was 100%. With `CN(C)CCCNc1nc(Nc2ccc(F)c(Cl)c2)ncc1-c1ccc2sc(C(=O)O)cc2c1` [Example 217, 5-(2-(3-chloro-4-fluorophenylamino)-4-(3-(dimethylamino)propylamino)pyrimidin-5-yl)benzo[b] thiophene-2-carboxylic acid] the inhibition at 13 µM was 82.4%. Compound `Cc1cc(C)cc(Nc2ncc(-c3cnc(OCCS(C)(=O)=O)c(C(=O)O)c3)c(-n3ccc(C(F)(F)F)n3)n2)c1` [Example 964] has an inhibition at 13 µM of 40%. `COCCCNc1nc(Nc2ccc(F)c(Cl)c2)ncc1-c1ccc2ncc(C(=O)O)cc2c1` [Example 305, 6-(2-(3-chloro-4-fluorophenylamino)-4-(3-methoxypropylamino)-pyrimidin-5-yl)quinoline-3-carboxylic acid] was tested, and the inhibition at 13 µM was 89.2%. `CCOC(=O)c1cncc(-c2cnc(Nc3ccc(F)c(Cl)c3)nc2N2C(C)CCC2C)c1` (centres unmarked) [Example 125, ethyl 5-[2-[(3-chloro-4-fluorophenyl)amino]-4-(2,5-dimethylpyrrolidin-1-yl)pyrimidin-5-yl]pyridine-3-carboxylate] gave an inhibition at 13 µM of 17.5%. `COCCNc1ncc(-c2cnc(Nc3ccc(F)c(Cl)c3)nc2-n2nc(C(F)(F)F)cc2C)cc1C(=O)O` [Example 1080, 5-(2-(3-Chloro-4-fluorophenylamino)-4-(5-methyl-3-(trifluoromethyl)-1H-pyrazol-1-yl)pyrimidin-5-yl)-2-(2-methoxyethylamino)nicotinic acid] gave an inhibition at 13 µM of 100%. `O=C(O)c1cncc(-c2cnc(Nc3ccc(F)c(Br)c3)nc2N2CCOCC2)c1` [Example 443] gave an inhibition at 13 µM of 85%. In the case of `O=C(O)/C=C/c1cccc(-c2cnc(Nc3ccc(F)c(Cl)c3)cc2N2CCOCC2)c1` [Example 1129], the inhibition at 13 µM is reported as 83%. For `CC(=O)N1CCN(c2nc(Nc3ccc(F)c(Cl)c3)ncc2-c2cccc(/C=C/C(=O)O)c2)CC1` [Example 288, (E)-3-(3-(4-(4-acetylpiperazin-1-yl)-2-(3-chloro-4-fluorophenylamino)-pyrimidin-5-yl)phenyl)acrylic acid], the inhibition at 13 µM was 82.9%. `CCOC(=O)c1cncc(-c2cnc(Nc3ccc(F)c(Cl)c3)nc2NCCCN2CCS(=O)(=O)CC2)c1` [Example 105, 5-{2-(3-Chloro-4-fluoro-phenylamino)-4-[3-(1,1-dioxo-1λ^6-thiomorpholin-4-yl)-propylamino]-pyrimidin-5-yl}-nicotinic acid ethyl ester] was tested, and the inhibition at 13 µM was 79.2%. Compound `CN(C)CCCNc1nc(Nc2ccc(F)c(Cl)c2)ncc1-c1cccc(/C=C/C(=O)O)c1` [Example 29, (2E)-3-[3-(2-[(3-chloro-4-fluorophenyl)amino]-4-{[3-(dimethylamino)propyl]-amino}pyrimidin-5-yl)phenyl]prop-2-enoic acid] has an inhibition at 13 µM of 99.7%. For `CONC(=O)c1cc(-c2cnc(Nc3ccc(F)c(Cl)c3)nc2-n2ccc(C(F)(F)F)n2)cnc1OC` [Example 1101, 5-(2-(3-chloro-4-fluorophenylamino)-4-(3-(trifluoromethyl)-1H-pyrazol-1-yl)pyrimidin-5-yl)-N,2-dimethoxynicotinamide], the inhibition at 13 µM was 82%. `CS(=O)(=O)NC(=O)c1cccc(-c2cnc(Nc3ccc(F)c(Cl)c3)nc2-n2ccc(C(F)(F)F)n2)c1` [Example 1002, 3-(2-(3-Chloro-4-fluorophenylamino)-4-(3-(trifluoromethyl)-1H-pyrazol-1-yl)pyrimidin-5-yl)-N-(methylsulfonyl)benzamide] gave an inhibition at 13 µM of 100%. In the case of `O=C(O)CCC(=O)Nc1ccc(-c2cnc(Nc3ccc(F)c(Cl)c3)nc2N2CCOCC2)cc1` [Example 478, 4-[(4-{2-[(3-chloro-4-fluorophenyl)amino]-4-(morpholin-4-yl)pyrimidin-5-yl}phenyl)amino]-4-oxobutanoic acid], the inhibition at 13 µM is reported as 100%. `CCOC(=O)CNc1nc(Nc2ccc(F)c(Cl)c2)ncc1-c1cncc(C(=O)OCC)c1` [Example 111, ethyl 5-[2-[(3-chloro-4-fluorophenyl)amino]-4-[(2-ethoxy-2-oxoethyl)amino]pyrimidin-5-yl]pyridine-3-carboxylate] was tested, and the inhibition at 13 µM was -13.9%. In the case of `CN(C)CCCNc1nc(Nc2ccc(F)c(Cl)c2)ncc1-c1ccc(/C=C/C(=O)O)cc1` [Example 24, (2E)-3-[4-(2-[(3-chloro-4-fluorophenyl)amino]-4-{[3-(dimethylamino)propyl]-amino}pyrimidin-5-yl)phenyl]prop-2-enoic acid], the inhibition at 13 µM is reported as 98.1%. Compound `CCOC(=O)c1cncc(-c2cnc(Nc3ccc(F)c(Cl)c3)nc2N2CCCC2)c1` [Example 147, ethyl 5-(2-(3-chloro-4-fluorophenylamino)-4-(pyrrolidin-1-yl)pyrimidin-5-yl)nicotinate] has an inhibition at 13 µM of 65.4%. `Cc1nccn1-c1nc(Nc2ccc(F)c(Cl)c2)ncc1-c1cncnc1` [Example 85, N-(3-chloro-4-fluorophenyl)-4-(2-methyl-1H-imidazol-1-yl)-5,5′-bipyrimidin-2-amine] was tested, and the inhibition at 13 µM was 66.8%. For `COc1ncc(-c2cnc(Nc3ccc(F)c(Cl)c3)nc2-n2nc(C(F)(F)F)cc2C)cc1C(=O)O` [Example 1067, 5-(2-(3-chloro-4-fluorophenylamino)-4-(5-methyl-3-(trifluoromethyl)-1H-pyrazol-1-yl)pyrimidin-5-yl)-2-methoxynicotinic acid], the inhibition at 13 µM was 98%. `COc1cc(Nc2ncc(-c3cnc(OC)c(C(=O)O)c3)c(-n3ccc(C4CC4)n3)n2)cc(OC)c1` [Example 1143, 5-(4-(3-cyclopropyl-1H-pyrazol-1-yl)-2-(3,5-dimethoxyphenylamino)pyrimidin-5-yl)-2-methoxynicotinic acid] showed an inhibition at 13 µM of 100%. `COCCn1cc(-c2cnc(Nc3ccc(F)c(Cl)c3)nc2-n2nc(C(F)(F)F)cc2C)cc(C(=O)O)c1=O` [Example 1082, 5-(2-(3-Chloro-4-fluorophenylamino)-4-(5-methyl-3-(trifluoromethyl)-1H-pyrazol-1-yl)pyrimidin-5-yl)-1-(2-methoxyethyl)-2-oxo-1,2-dihydropyridine-3-carboxylic acid] was tested, and the inhibition at 13 µM was 100%.
